“And” between values parts separate entries of the source, which are not always exact repeats. Identical values can stand only once. Inconclusive results and toxic doses are left out.

This test has as its system BDF1 mice, P388 leukemia ip, median survival T/C. The test can be described thus: NCI In Vivo Anticancer Drug Screen. Data for tumor model P388 Leukemia (intraperitoneal) in B6D2F1 (BDF1) mice. The note with it: endpoint: median survival time, higher = longer survival. The procedure, abridged:
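Reported as T/C, where T is the survival measurement in dosed animals and C the same measurement in vehicle controls.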

[1] abbreviates: dose: 50.0 mg/kg/injection, schedule: Q01DX009 (ip), vehicle: saline with Tween-80.
[2] abbreviates: dose: 100.0 mg/kg/injection, schedule: Q01DX009 (ip), vehicle: saline with Tween-80.
Where [3] appears, read: dose: 100.0 mg/kg/injection, schedule: Q04DX003 (ip), vehicle: saline with Tween-80.
Where [4] appears, read: dose: 400.0 mg/kg/injection, schedule: Q04DX003 (ip), vehicle: saline with Tween-80.
Setting [5] is: dose: 200.0 mg/kg/injection, schedule: Q01DX009 (ip), vehicle: saline with Tween-80.
Setting [6] is: dose: 200.0 mg/kg/injection, schedule: Q04DX003 (ip), vehicle: saline with Tween-80.
The mark [7] stands for this setting: dose: 25.0 mg/kg/injection, schedule: Q01DX009 (ip), vehicle: saline.

As for `CC1(C)N=C(N)N=C(N)N1c1cccc(CNC(=O)Nc2cccc(S(=O)(=O)F)c2)c1`, the T/C under setting [1] was 154 % of control; the T/C (dose: 50.0 mg/kg/injection, schedule: Q04DX003 (ip), vehicle: saline with Tween-80) was 100 % of control; the T/C under setting [2] was 168 % of control; the T/C under setting [3] was 100 % of control.
As for `CC1CC/C(=N\N(C)C)c2ccccc21` (stereo not drawn), the T/C was 118 % of control (dose: 67.0 mg/kg/injection, schedule: Q04DX003 (ip), vehicle: saline with Tween-80); 122 % of control under setting [3]; 120 % of control under setting [4].
Consider `O=C(CCc1ccc(O)cc1)c1c(O)cc(O)cc1OC1OC(CO)C(O)C(O)C1O` (stereo not drawn), for which the T/C is, setting by setting: (dose: 115.0 mg/kg/injection, schedule: Q01DX010 (ip), vehicle: saline) 100 % of control; (dose: 175.0 mg/kg/injection, schedule: Q01DX010 (ip), vehicle: saline) 109 % of control; (dose: 265.0 mg/kg/injection, schedule: Q01DX010 (ip), vehicle: saline) 100 % of control; (dose: 400.0 mg/kg/injection, schedule: Q01DX010 (ip), vehicle: saline) 95 % of control.
For `CS(=O)CC(O)(c1ccccc1)c1ccncc1` (stereo not drawn), the T/C reads like this: under setting [1], 99 % of control; under setting [2], 112 % of control; under setting [5], 110 % of control.
As to `CCCCCC[C@@H](O)C/C=C\CCCCCCCC(=O)OCCO`, the T/C by setting is: (dose: 50.0 mg/kg/injection, schedule: Q01DX005 (ip), vehicle: saline) 99 % of control; (dose: 100.0 mg/kg/injection, schedule: Q01DX005 (ip), vehicle: saline) 107 % of control; (dose: 200.0 mg/kg/injection, schedule: Q01DX005 (ip), vehicle: saline) 93 % of control; (dose: 400.0 mg/kg/injection, schedule: Q01DX005 (ip), vehicle: saline) 105 % of control; (dose: 800.0 mg/kg/injection, schedule: Q01DX005 (ip), vehicle: saline) 115 % of control; (dose: 1600.0 mg/kg/injection, schedule: Q01DX005 (ip), vehicle: saline) 107 % of control.
For the molecule `CCCCc1c2c(nn1C(=O)C=C(C)C)C(=O)C=C(Nc1ccccc1)C2=O`, the T/C under setting [3] is 99 % of control, the T/C under setting [6] is 95 % of control and the T/C under setting [4] was 103 % of control.
On to `OCc1ccccc1`, for which the T/C under setting [2] is 95 % of control; the T/C under setting [5] is 104 % of control; the T/C (dose: 400.0 mg/kg/injection, schedule: Q01DX009 (ip), vehicle: saline with Tween-80) is 108 % of control.
For `c1cc2c(c(CC3CO3)c1CC1CO1)OCCOCCOCCOCCO2` (stereo not drawn), the T/C was 98 % of control and 105 % of control (dose: 6.0 mg/kg/injection, schedule: Q01DX009 (ip), vehicle: saline + alcohol); 108 % of control (dose: 12.0 mg/kg/injection, schedule: Q01DX009 (ip), vehicle: saline + alcohol); 113 % of control (dose: 24.0 mg/kg/injection, schedule: Q01DX009 (ip), vehicle: saline + alcohol).
Regarding `C=C(C)C(=O)O[C@H]1CC2=C[C@@H](C[C@@]3(C)O[C@@H]3[C@H]3OC(=O)C(=C)[C@@H]31)OC2=O`, the T/C is 113 % of control (dose: 2.2 mg/kg/injection, schedule: Q01DX010 (ip), vehicle: carboxymethylcellulose (CMC)); 109 % of control (dose: 2.5 mg/kg/injection, schedule: Q01DX009 (ip), vehicle: saline + alcohol); 118 % of control (dose: 3.3 mg/kg/injection, schedule: Q01DX010 (ip), vehicle: carboxymethylcellulose (CMC)); 113 % of control (dose: 5.0 mg/kg/injection, schedule: Q01DX010 (ip), vehicle: carboxymethylcellulose (CMC)); 152 % of control (dose: 7.5 mg/kg/injection, schedule: Q01DX010 (ip), vehicle: carboxymethylcellulose (CMC)); 118 % of control (dose: 7.5 mg/kg/injection, schedule: Q01DX010 (ip), vehicle: saline). Also, the T/C runs as follows: (dose: 10.0 mg/kg/injection, schedule: Q01DX009 (ip), vehicle: saline) 120 % of control; (dose: 15.0 mg/kg/injection, schedule: Q01DX010 (ip), vehicle: carboxymethylcellulose (CMC)) 157 % of control; (dose: 15.0 mg/kg/injection, schedule: Q01DX010 (ip), vehicle: saline) 109 % of control; (dose: 20.0 mg/kg/injection, schedule: Q01DX009 (ip), vehicle: saline + alcohol) 122 % of control; (dose: 30.0 mg/kg/injection, schedule: Q01DX010 (ip), vehicle: carboxymethylcellulose (CMC)) 115 % of control; (dose: 30.0 mg/kg/injection, schedule: Q01DX010 (ip), vehicle: saline) 118 % of control. Besides, the T/C runs as follows: (dose: 40.0 mg/kg/injection, schedule: Q01DX009 (ip), vehicle: saline) 160 % of control; (dose: 60.0 mg/kg/injection, schedule: Q01DX010 (ip), vehicle: saline) 90 % of control.
Take `CC(NC(C)(C)C)C(=O)c1cccc(Cl)c1` (stereo not drawn): the T/C runs as follows: (dose: 12.5 mg/kg/injection, schedule: Q01DX009 (ip), vehicle: saline) 108 % of control; under setting [7], 112 % of control; (dose: 50.0 mg/kg/injection, schedule: Q01DX009 (ip), vehicle: saline) 105 % of control.
On to `CCCCCCc1ccccc1`, for which the T/C under setting [3] is 109 % of control, the T/C under setting [6] is 109 % of control and the T/C under setting [4] is 118 % of control.
Regarding `O=C1/C(=C/c2ccccc2)Cc2cccc(O)c21`, the T/C was 100 % of control (dose: 37.5 mg/kg/injection, schedule: Q01DX001 (ip), vehicle: saline with Tween-80); 100 % of control (dose: 75.0 mg/kg/injection, schedule: Q01DX001 (ip), vehicle: saline with Tween-80); 100 % of control (dose: 150.0 mg/kg/injection, schedule: Q01DX001 (ip), vehicle: saline with Tween-80).
Take `CCCC(=O)c1cc(O)c(O)cc1O`: the T/C was 95 % of control (dose: 12.5 mg/kg/injection, schedule: Q01DX009 (ip), vehicle: saline with Tween-80); 104 % of control (dose: 25.0 mg/kg/injection, schedule: Q01DX009 (ip), vehicle: saline with Tween-80); 106 % of control under setting [1].
Consider `CC12COC(=O)CC1CCC1C2CCC2(C)C1CCC2(C)O` (stereo not drawn), for which the T/C by setting is: under setting [1], 90 % of control; under setting [2], 95 % of control; under setting [5], 100 % of control.
As to `O/N=c1/cc(-c2ccc(Cl)cc2)ss1`, the T/C is 114 % of control under setting [7]; 100 % of control and 113 % of control (dose: 50.0 mg/kg/injection, schedule: Q04DX003 (ip), vehicle: saline); 106 % of control (dose: 100.0 mg/kg/injection, schedule: Q01DX009 (ip), vehicle: saline); 93 % of control and 106 % of control and 110 % of control (dose: 100.0 mg/kg/injection, schedule: Q04DX003 (ip), vehicle: saline); 92 % of control (dose: 200.0 mg/kg/injection, schedule: Q01DX009 (ip), vehicle: saline); 96 % of control and 102 % of control (dose: 200.0 mg/kg/injection, schedule: Q04DX003 (ip), vehicle: saline). The T/C (dose: 400.0 mg/kg/injection, schedule: Q01DX009 (ip), vehicle: saline) was 96 % of control; the T/C (dose: 400.0 mg/kg/injection, schedule: Q04DX003 (ip), vehicle: saline) is 102 % of control; the T/C (dose: 600.0 mg/kg/injection, schedule: Q04DX003 (ip), vehicle: saline) is 90 % of control.
`CN(C)c1ccc(/C=C/c2ccnc3ccccc23)c(O)c1`: the T/C under setting [3] was 113 % of control.

The values are drawn from PubChem BioAssay AID328 (DTP/NCI, 2004).
